Assay results as given in patent US9724331B2, “Use of maleimide derivatives for preventing and treating leukemia” (CENTOGENE AG, priority 2012, dated 2017).

Columns and labels:
Assay type in all cases: cell-based, human
Jurkat cells [1] = assay: Metabolic activity, WST-1 assay
Description: (§1) The human B-ALL cell lines SEM, RS4;11 and the human T-ALL cell lines Jurkat and Molt-4 were purchased from DSMZ (Germany) and cultured according to manufacturer's protocol. The corresponding medium was supplemented with 10% heat-inactivated fetal bovine serum (PAA, Pasching, Austria) and 1% penicillin and streptomycin (Biochrom AG, Berlin, Germany). The Molt-4 cells were cultured with medium supplemented with 20% heat-inactivated fetal bovine serum. All cells were maintained at 37° C. in 5% CO2. Cells (5×10^5/well) were seeded in 24 well plates (Nunc, Langenselbold, Germany) and incubated for up to 72 h with PDA-66. Treated cells were harvested after 4, 24, 48 and 72 h and used for further analyses.
(§2) Cell counts were determined using the trypan blue staining. Metabolic activity was analyzed by using tetrazolium compound WST-1 (Roche, Mannheim, Germany). In brief, triplicates of cells (5×10^4/well) were seeded in 96 well plates, treated with PDA-66 and incubated with 15 μl WST-1 for up to 4 h. The mitochondrial dehydrogenases reduce WST-1 to soluble formazan and cause a change of color, which correlates with the amount of metabolically active cells. Absorbance at 450 nm and a reference wavelength at 620 nm were determined by an ELISA Reader (Anthos, Krefeld, Germany). The absorbance of culture medium with supplemented WST-1 in the absence of cells was used as background control.
(§3) The influence of PDA-66 on proliferation in ALL cell lines SEM, RS4;11, Jurkat and Molt-4 was analyzed by incubation with different concentrations of the drug (0.001 μM to 10 μM). Metabolic activity was determined using WST-1 assay. […] Results are summarized in FIG. 2, whereby the individual nine bars for each set of experiments represent, from left to right, DMSO, 0.001 μM, 0.01 μM, 0.1 μM, 0.25 μM, 0.5 μM, 1.0 μM, 5 μM and 10 μM. After 48 h of incubation an inhibition of proliferation could be observed, but was more distinct after 72 h.

SEM cells [2] = assay: Metabolic activity, WST-1 assay
Description: as §1, §2, §3

RS4;11 cells [3] = assay: Metabolic activity, WST-1 assay; conditions: 0.5 μM PDA-66, 72 h, mean±SD
Description: as §1, §2, §3

Molt-4 cells [4] = assay: Metabolic activity, WST-1 assay; conditions: 0.5 μM PDA-66, 72 h, mean±SD
Description: as §1, §2, §3

Jurkat cells [5] = assay: Cell cycle analysis, propidium iodide staining, flow cytometry; conditions: 1 μM PDA-66, mean±SD
Description: (§4) After treatment cells were harvested and washed twice in PBS. Cells were fixed with 70% ethanol and incubated with 1 mg/ml Ribonuclease A (Sigma-Aldrich, St. Louis, USA) for 30 min at 37° C. After washing the cells twice in PBS, they were stained with PI (50 μg/ml) and DNA content was determined by flow cytometry. All cell lines were incubated with PDA-66 and cell cycle distribution was determined using Propidium iodide staining.
(§5) The treatment with PDA-66 influenced the four cell lines differently. […] G2 arrest could be detected in RS4;11 and Molt-4 cells after 48 h of treatment. Treatment of Jurkat cells induced a decrease of cells in G0/G1 phase in favor of cells in S phase.

SEM cells [6] = assay: as above
Description: as §4, §5

RS4;11 cells [7] = assay: as above
Description: as §4, §5

Molt-4 cells [8] = assay: as above
Description: as §4, §5

## CC(=O)c1ccc(C2=C(c3c(C)[nH]c4ccccc34)C(=O)N(C)C2=O)cc1 [PDA-66, 3-(4-Acetylphenyl)-1-methyl-4-(2-methyl-1H-indol-3-yl)-1H-pyrrole-2,5-dione]
Jurkat cells [1]; Homo sapiens, Jurkat cells, 72 h of incubation
  IC50: 1280 nM
Jurkat cells [1]; Jurkat, 0.5 μM PDA-66, 72 h, mean±SD
  metabolic activity compared to control cells treated with DMSO: 66.7±8%
SEM cells [2]; Homo sapiens, SEM cells, 72 h of incubation
  IC50: 410 nM
SEM cells [2]; SEM, 0.5 μM PDA-66, 72 h, mean±SD
  metabolic activity compared to control cells treated with DMSO: 35.7±8.3%
RS4;11 cells [3]
  metabolic activity compared to control cells treated with DMSO: 33.3±4.4%
Molt-4 cells [4]
  metabolic activity compared to control cells treated with DMSO: 35.5±17%
Jurkat cells [5]
  amount of cells in G0/G1 phase: 47.3±4.3%
  amount of cells in S phase: 20.0±1.1%
SEM cells [6]; 0.5 μM PDA-66, 48 h, mean±SD
  amount of cells in G0/G1: 69.3±2.7%
SEM cells [6]; 1 μM PDA-66, 48 h
  effect on cell cycle: did not affect the cell cycle significantly
RS4;11 cells [7]; 1 μM PDA-66, 48 h, mean±SD
  amount of cells in G0/G1 phase: 47.3±2.7%
  amount of cells in G2 phase: 42.1±4.4%
RS4;11 cells [7]; smaller dosages than 1 μM
  cells in G0/G1 phase: significant increase
Molt-4 cells [8]; 1 μM PDA-66, 48 h, mean±SD
  amount of cells in G0/G1 phase: 45.0±7.3%
  amount of cells in G2 phase: 41.0±5.8%
Molt-4 cells [8]; smaller dosages than 1 μM
  cells in G0/G1 phase: significant increase
